Values joined by “and” are separate entries in the source; they are usually repeats but may differ in a detail not shown here. Identical values can stand only once.
How the values were obtained:
[1] = xn = mol fraction of the nth substance listed

C#CC(C)(C)O
101.32 kPa
Details | viscosity [mPa·s]
308.15 K | 2.09
313.15 K | 1.775
318.15 K | 1.551
323.15 K | 1.347

C1CCNCC1
101 kPa
Details | viscosity [mPa·s]
298.15 K | 1.31
303.15 K | 1.21
323.15 K | 0.757

C1CC[C@H]2CCCC[C@H]2C1
viscosity [mPa·s]
Details | 293.15 K | 303.15 K | 313.15 K | 323.15 K
100 kPa | – | 2.704 | 2.214 | 1.861
101 kPa | 3.337 | 2.444 | – | –
101.3 kPa | 3.361 | 2.641 | – | –

CC(=O)OC(C)C
101 kPa
Details | viscosity
298.15 K | 0.49 mPa·s
308.15 K | 0.4342 mPa·s and 0.4323 mPa·s

CC(=O)[O-].CC[NH+](CC)CC
101 kPa
Details | viscosity
303.15 K | 19.6 mPa·s and 19.64 mPa·s
308.15 K | 16.13 mPa·s and 16.13 mPa·s
313.15 K | 14.81 mPa·s

CC(CC(C)(C)C)CC(C)(C)CC(C)(C)C (configuration not stated)
viscosity
Details | 293.15 K | 298.15 K | 303.15 K | 313.15 K | 323.15 K
100 kPa | 3.64 mPa·s and 3.64 mPa·s and 3.782 mPa·s (2×) | – | 2.984 mPa·s | 2.43 mPa·s and 2.43 mPa·s and 2.411 mPa·s (2×) | 2.01 mPa·s and 2.01 mPa·s and 2.018 mPa·s (2×)
101.33 kPa | – | 3.343 mPa·s | – | – | –

CC(O)=S
Details | viscosity
298.1 K, 101 kPa | 0.687 mPa·s and 0.687 mPa·s

CCCC(=O)O
viscosity
Details | 293.15 K | 303.15 K | 313.15 K | 323.15 K
101 kPa | 1.778 mPa·s and 1.54 mPa·s and 1.78 mPa·s | 1.296 mPa·s and 1.331 mPa·s and 1.33 mPa·s | 1.12 mPa·s | 0.9885 mPa·s
101.33 kPa | 1.623 mPa·s | – | 1.184 mPa·s | –

CCCC(C)O (configuration not stated)
Details | viscosity
293.15 K, 101.33 kPa | 3.376 mPa·s
298.15 K, 100 kPa | 3.426 mPa·s
298.15 K, 101 kPa | 3.38 mPa·s and 3.2 mPa·s
298.15 K, 101.3 kPa | 3.45 mPa·s
303 K, 101.33 kPa | 2.677 mPa·s
303.15 K, 101 kPa | 2.739 mPa·s
303.15 K, 101.33 kPa | 2.763 mPa·s and 2.888 mPa·s and 2.887 mPa·s
308.15 K, 101 kPa | 2.312 mPa·s
308.15 K, 101.3 kPa | 2.32 mPa·s
313 K, 101.33 kPa | 2.014 mPa·s
313.15 K, 101 kPa | 1.943 mPa·s
313.15 K, 101.3 kPa | 1.92 mPa·s
313.15 K, 101.33 kPa | 2.017 mPa·s
318.15 K, 101 kPa | 1.674 mPa·s
323.15 K, 101 kPa | 1.479 mPa·s
323.15 K, 101.33 kPa | 1.521 mPa·s

CCCCBr
101 kPa
Details | viscosity
295.95 K | 0.6116 mPa·s
298.15 K | 0.606 mPa·s
303.45 K | 0.5621 mPa·s
308.15 K | 0.552 mPa·s and 0.5235 mPa·s
313.25 K | 0.5057 mPa·s
318.15 K | 0.502 mPa·s
323.15 K | 0.476 mPa·s

CCCCCCCBr
101 kPa
Details | viscosity [mPa·s]
293.15 K | 1.205
303.15 K | 1.05
313.15 K | 0.925
323.15 K | 0.82

CCCCCCCC[n+]1ccc2ccccc2c1.O=S(=O)([N-]S(=O)(=O)C(F)(F)F)C(F)(F)F
101 kPa
Details | viscosity
298.15 K | 369.3 mPa·s and 369.3 mPa·s
308.15 K | 191 mPa·s and 191 mPa·s
318.15 K | 108.7 mPa·s and 108.7 mPa·s

CCCCCCn1cc[n+](C)c1C.O=S(=O)([N-]S(=O)(=O)C(F)(F)F)C(F)(F)F
100 kPa
Details | viscosity [mPa·s]
293.15 K | 172
298.15 K | 129
303.15 K | 99
308.15 K | 78

CCCCNCCCC
viscosity
Details | 293.15 K | 298.15 K | 303.15 K | 308.15 K | 313.15 K | 318.15 K | 323.15 K
100 kPa | – | 0.81 mPa·s | 0.75 mPa·s | 0.71 mPa·s | – | – | –
101 kPa | – | – | 0.764 mPa·s and 0.7734 mPa·s | 0.7184 mPa·s and 0.6757 mPa·s | 0.6692 mPa·s | 0.6249 mPa·s | 0.5859 mPa·s
101.33 kPa | 0.85 mPa·s | 0.81 mPa·s | 0.73 mPa·s | 0.698 mPa·s | 0.64 mPa·s | 0.611 mPa·s | 0.56 mPa·s

CCCC[N+](C)(CCCC)CCCC.N#C[N-]C#N
101 kPa
Details | viscosity [mPa·s]
293.15 K | 497.7
303.15 K | 238.9
313.15 K | 127.3
323.15 K | 74.87

CCC[N+]1(C)CCCC1.O=S(=O)([N-]S(=O)(=O)C(F)(F)F)C(F)(F)F
viscosity [mPa·s]
Details | 293.15 K | 298.15 K | 303.15 K | 308.15 K | 313.15 K | 318.15 K | 323.15 K
101 kPa | – | – | – | – | 34.4 | – | –
101.3 kPa | 76.4 | 61.2 | 49.8 | 41.1 | 34.4 | 29.2 | 25

CCN(C=O)CC
viscosity [mPa·s]
Details | 298.15 K | 298.16 K | 308.15 K | 323.15 K
101 kPa | 1.25 | 1.139 | 1.03 | 0.86
101.33 kPa | 1.254 | – | – | 0.851

CCOC(=O)C(=O)OCC
101 kPa
Details | viscosity [mPa·s]
313.15 K | 1.361
323.15 K | 1.154

CC[N+](CC)(CC)CC.[OH-]
viscosity [mPa·s]
Details | 298.15 K | 303.15 K | 308.15 K | 313.15 K
100 kPa | 4.94 | 4.72 | 4.43 | 4.27
101 kPa | 4.94 | 4.72 | 4.43 | 4.27

COCCO
viscosity
Details | 293.15 K | 298.15 K | 303.15 K | 308.15 K | 313.15 K | 318.15 K | 323.15 K
100 kPa | – | 1.649 mPa·s and 1.563 mPa·s | 1.457 mPa·s | 1.292 mPa·s | 1.15 mPa·s and 1.188 mPa·s | – | –
101 kPa | 1.78 mPa·s | – | – | – | – | – | 0.931 mPa·s and 0.9856 mPa·s and 0.965 mPa·s
101.3 kPa | – | 1.522 mPa·s and 1.695 mPa·s | 1.381 mPa·s and 1.525 mPa·s and 1.376 mPa·s | 1.242 mPa·s and 1.368 mPa·s | 1.151 mPa·s and 1.155 mPa·s | – | 0.9746 mPa·s
101.33 kPa | – | 1.552 mPa·s | 1.476 mPa·s | – | 1.2 mPa·s and 1.189 mPa·s | 1.098 mPa·s and 1.04 mPa·s and 1.042 mPa·s | –

CC(=O)OC(C)C + c1ccccc1
[1], 308.15 K, 101 kPa
Details | viscosity [mPa·s]
x2 = 0.0634 | 0.4362
x2 = 0.2053 | 0.4409
x2 = 0.3085 | 0.4455
x2 = 0.4037 | 0.4502
x2 = 0.5044 | 0.4564
x2 = 0.6051 | 0.4587
x2 = 0.6985 | 0.4735
x2 = 0.8005 | 0.4854
x2 = 0.9366 | 0.502

CCCCBr + c1ccccc1
[1], 101 kPa
Details | viscosity [mPa·s]
298.15 K, x1 = 0.066 | 0.588
298.15 K, x1 = 0.1 | 0.583
298.15 K, x1 = 0.134 | 0.574
308.15 K, x1 = 0.066 | 0.518
308.15 K, x1 = 0.1 | 0.515
308.15 K, x1 = 0.134 | 0.51
308.15 K, x2 = 0.094 | 0.5122
308.15 K, x2 = 0.2084 | 0.5022
308.15 K, x2 = 0.2997 | 0.4939
308.15 K, x2 = 0.395 | 0.4879
308.15 K, x2 = 0.5053 | 0.4828
308.15 K, x2 = 0.5954 | 0.4805
308.15 K, x2 = 0.6993 | 0.4823
308.15 K, x2 = 0.8012 | 0.4853
308.15 K, x2 = 0.9023 | 0.4943
318.15 K, x1 = 0.066 | 0.459
318.15 K, x1 = 0.1 | 0.457
318.15 K, x1 = 0.134 | 0.454
323.15 K, x1 = 0.066 | 0.432
323.15 K, x1 = 0.1 | 0.431
323.15 K, x1 = 0.134 | 0.428

CCCCNCCCC + c1ccccc1
viscosity [mPa·s], [1], 101 kPa
Details | x1 = 0.01077 | x1 = 0.02009 | x1 = 0.02993 | x1 = 0.03893 | x1 = 0.04865 | x1 = 0.05929 | x1 = 0.06883 | x1 = 0.07963 | x1 = 0.08917
303.15 K | 0.5674 | 0.5699 | 0.5746 | 0.5771 | 0.5809 | 0.584 | 0.5864 | 0.5907 | 0.5931
313.15 K | 0.4959 | 0.4998 | 0.503 | 0.5067 | 0.511 | 0.5134 | 0.515 | 0.5177 | 0.5198

CCOC(=O)C(=O)OCC + c1ccccc1
[1], 303.15 K, 101 kPa
Details | viscosity [mPa·s]
x1 = 0.0682 | 0.5918
x1 = 0.1415 | 0.6316
x1 = 0.2203 | 0.6727
x1 = 0.3054 | 0.7255
x1 = 0.3972 | 0.7942
x1 = 0.4972 | 0.8854
x1 = 0.6066 | 1.009
x1 = 0.7258 | 1.164
x1 = 0.8557 | 1.374

COCCO + c1ccccc1
viscosity [mPa·s], [1]
Details | 298.15 K | 303.15 K | 308.15 K
101 kPa, x1 = 0.0543 | 0.624 | – | 0.541
101 kPa, x1 = 0.1499 | 0.669 | – | 0.571
101 kPa, x1 = 0.2235 | 0.708 | – | 0.598
101 kPa, x1 = 0.3508 | 0.788 | – | 0.654
101 kPa, x1 = 0.4496 | 0.862 | – | 0.707
101 kPa, x1 = 0.4961 | 0.902 | – | 0.735
101 kPa, x1 = 0.5462 | 0.947 | – | 0.768
101 kPa, x1 = 0.6455 | 1.049 | – | 0.842
101 kPa, x1 = 0.7524 | 1.18 | – | 0.938
101 kPa, x1 = 0.8509 | 1.323 | – | 1.043
101 kPa, x1 = 0.9558 | 1.505 | – | 1.177
101.33 kPa, x1 = 0.1174 | – | 0.599 | –
101.33 kPa, x1 = 0.1933 | – | 0.628 | –
101.33 kPa, x1 = 0.2642 | – | 0.659 | –
101.33 kPa, x1 = 0.3837 | – | 0.728 | –
101.33 kPa, x1 = 0.4988 | – | 0.807 | –
101.33 kPa, x1 = 0.654 | – | 0.945 | –
101.33 kPa, x1 = 0.7474 | – | 1.049 | –
101.33 kPa, x1 = 0.843 | – | 1.188 | –
101.33 kPa, x1 = 0.8998 | – | 1.246 | –

CCCC(=O)O + c1ccncc1
[1], 293.15 K, 101 kPa
Details | viscosity [mPa·s]
x2 = 0.152 | 3.474
x2 = 0.256 | 3.89
x2 = 0.429 | 3.36
x2 = 0.528 | 2.674
x2 = 0.642 | 1.996
x2 = 0.818 | 1.29

From the CheMixHub viscosity set
